# Key:
# C/EBPβ = C/EBPβ activation (phosphorylation, nuclear translocation) by immunochemical method in treated cells; assay type: cell-based; set-up: key to C/EBPβ activation: O: same enzyme induction as oltipraz; OO: stronger enzyme induction than oltipraz; conditions: for C/EBPβ activation: 30 μM, 24 hours, nuclear fractions or lysates, relative to oltipraz; for phosphorylation of 105Serine residue of C/EBPβ: after 3 hours from the culture; for p-C/EBPβ (105Serine) localisation, cytoplasmic to nuclear fractions: after 6 hours
# Experimental: (§1) The present experimental example is to confirm C/EBPβ activation by using Compound 1 and Compound 2 which were prepared in the above Examples, and a degree of increase of Glutathione S-transferase A (GSTA), a representative gene which is induced by C/EBPβ activation. […] 0.7 mg/ml of MTT (yellow tetrazolium salt) was added thereto and further cultured for 4 hours. Since MTT is reduced to insoluble formazan crystal in survived cells, the produced crystal was dissolved with DMSO solvent, and the absorbance at 595 nm was measured. The cells were cultured with the newly prepared compounds except for the compounds which kill cells, i.e., Compound 1 and Compound 2 (each 30 μM), for 24 hours, and C/EBPβ activation and GSTA expression in nuclear fractions or lysates obtained from the treated cells were measured by immunochemical method.
# When C/EBPβ gene is deleted in animals, regeneration of live tissue is impossible [Greenbaum et al., J Clin Invest. 1998; 102(5):996-1007]. C/EBPβ activation inhibits transforming growth factors (TGF-β) which is a mediating factor of hepatic fibrosis [Kang et al., FASEB J. 2002; 16(14):1988-90]. Therefore, C/EBPβ activation plays an important role in liver tissue regeneration and hepatic fibrosis inhibition. C/EBPβ activation process takes place by mediating phosphorylation of specific amino acid residue, i.e., ^105Serine residue of C/EBPβ [Buck et al., Mol. Cell. 1999; 4(6):1087-92]. Under this background art, it was observed whether or not direct increase of RSK1's activity by the compounds of the present invention induces phosphorylation of ^105Serine residue of C/EBPβ. […] In this experimental example, oltipraz was used as comparative example.
# [1] = system: Glutathione S-transferase A (GSTA); assay: GSTA expression induced by C/EBPβ activation, immunochemical method; assay type: cell-based; set-up: key: +: similar activation effects to oltipraz; ++: stronger activation effects than oltipraz; conditions: 30 μM, 24 hours, nuclear fractions or lysates, relative to oltipraz
# Experimental: as §1
# When C/EBPβ gene is deleted in animals, regeneration of live tissue is impossible [Greenbaum et al., J Clin Invest. 1998; 102(5):996-1007]. C/EBPβ activation inhibits transforming growth factors (TGF-β) which is a mediating factor of hepatic fibrosis [Kang et al., FASEB J. 2002; 16(14):1988-90]. Therefore, C/EBPβ activation plays an important role in liver tissue regeneration and hepatic fibrosis inhibition. […]
Structure (SMILES),degree of phosphorylation of 188Threonine residue of C/EBPβ (C/EBPβ),C/EBPβ activation (C/EBPβ),phosphorylation of 105Serine residue of C/EBPβ (C/EBPβ),"p-C/EBPβ (105Serine) localisation, cytoplasmic to nuclear fractions (C/EBPβ)",GSTA induction [1]
"S=c1ssc2c1CN(Cc1ccccc1)CC2 [Compound 1, 5-benzyl-4,5,6,7-tetrahydro-1,2-dithiolo[4,3-c]pyridine-3-thion]",not changed at all,O,increased,moved into the nuclear fractions,++
"CCOC(=O)N1CCc2ssc(=S)c2C1 [Compound 2, 3-thioxo-6,7-dihydro-3H,4H-1,2-dithiolo[4,3-c]pyridine-5-carboxylic acid ethyl ester]",not changed at all,O,increased,moved into the nuclear fractions,++

# — patent publication US20080058368A1, “4,5,6,7-Tetrahydro-[1,2]Dithiolo[4,3-C] Pyridine-3-Thione Compounds” (priority 2004, published 2008)
